Literature values as cited in patent US7439254B2, “Compounds, compositions, and methods” (Cytokinetics, Inc., priority 2003, dated 2008).

Tested on: A549 cells
Details: data provided by National Cancer Institute, Developmental Therapeutic Program

| SMILES | GI50 [nM] |
| --- | --- |
| O=c1[nH]cc(F)c(=O)[nH]1 [5-fluorouracil] | 1000 |
| COc1cccc2c1C(=O)c1c(O)c3c(c(O)c1C2=O)C[C@@](O)(C(=O)CO)C[C@@H]3O[C@H]1C[C@H](N)[C@H](O)[C@H](C)O1 [doxorubicin] | 63 |
| NC(=O)NO [hydroxyurea] | 500000 |
| CC(=O)O[C@H]1C(=O)[C@@]2(C)[C@H]([C@H](OC(=O)c3ccccc3)[C@]3(O)C[C@H](OC(=O)[C@H](O)[C@@H](NC(=O)c4ccccc4)c4ccccc4)C(C)=C1C3(C)C)[C@]1(OC(C)=O)CO[C@@H]1C[C@@H]2O [paclitaxel] | 4 |
